The test system of one series is Plasmodium falciparum. Nature of the series: Resistance index, ratio of IC50 for chloroquine-resistant Plasmodium falciparum K1 to IC50 chloroquine-sensitive Plasmodium falciparum NF54. The class given is functional.
Conditions: not given
In the case of `C[C@H]1[C@H](OC(=O)CCC(=O)NCCCNc2nc3ccccc3c3[nH]c4ccccc4c23)O[C@@H]2O[C@@]3(C)CC[C@H]4[C@H](C)CC[C@@H]1[C@@]24OO3`, the “Ratio IC50” value is 0.4.

`COC(=O)c1ccc2c(c1)c(NCC(O)CNC(=O)CCC(=O)O[C@@H]1O[C@@H]3O[C@@]4(C)CC[C@H]5CCC[C@@H]([C@H]1C)[C@]53OO4)c1c3ccccc3nc-1n2C` (some centres not stated): the “Ratio IC50” value was found to be 0.27.

With `C[C@H]1[C@H](OC(=O)CCC(=O)NCC(C)(C)CNc2c3c4ccccc4nc-3n(C)c3ccccc23)O[C@@H]2O[C@@]3(C)CC[C@H]4CCC[C@@H]1[C@]42OO3`, the “Ratio IC50” value was 0.82.

Test system in a further series: not listed separately
Nature of the series: Selectivity index, ratio of IC50 for rat L6 cells to IC50 for chloroquine-resistant Plasmodium falciparum K1. The class given is toxicity, cell-based. Conditions: L6 cells (cytotoxicity) versus Plasmodium falciparum K1, read-out: Ratio IC50.
In the case of `C[C@H]1[C@H](OC(=O)CCC(=O)NCCCNc2nc3ccccc3c3[nH]c4ccccc4c23)O[C@@H]2O[C@@]3(C)CC[C@H]4[C@H](C)CC[C@@H]1[C@@]24OO3`, the selectivity ratio worked out at 3290.

With `COC(=O)c1ccc2c(c1)c(NCC(O)CNC(=O)CCC(=O)O[C@@H]1O[C@@H]3O[C@@]4(C)CC[C@H]5CCC[C@@H]([C@H]1C)[C@]53OO4)c1c3ccccc3nc-1n2C` (some centres not stated), the selectivity ratio is 3060.

`C[C@H]1[C@H](OC(=O)CCC(=O)NCC(C)(C)CNc2c3c4ccccc4nc-3n(C)c3ccccc23)O[C@@H]2O[C@@]3(C)CC[C@H]4CCC[C@@H]1[C@]42OO3`: the selectivity ratio is 3180.

For another series, the system named is Plasmodium falciparum. As to the kind of experiment: Antiplasmodial activity against chloroquine-sensitive Plasmodium falciparum NF54. The class given is functional, organism-based.
Conditions: not given
In the case of `NCCCNc1c2ccccc2nc2c1[nH]c1ccccc12`, the IC50 (as a rule, the concentration needed to halve the response being measured) was 17.2 nM.

With `C[C@@H]1CC[C@H]2[C@@H](C)C(=O)O[C@@H]3O[C@@]4(C)CC[C@@H]1[C@]32OO4` [ARTEMISININ], it took 4.3 nM to reach half-maximal inhibition (IC50).

Molecule `C[C@H]1[C@H](OC(=O)CCC(=O)NCCCNc2nc3ccccc3c3[nH]c4ccccc4c23)O[C@@H]2O[C@@]3(C)CC[C@H]4[C@H](C)CC[C@@H]1[C@@]24OO3` had an IC50 of 1.67 nM.

For the molecule `C[C@H]1[C@H](OC(=O)CCC(=O)NCCCNc2c3ccccc3nc3c2[nH]c2ccccc23)O[C@@H]2O[C@@]3(C)CC[C@H]4[C@H](C)CC[C@@H]1[C@@]24OO3`, the IC50 was 12.2 nM.

Turning to `COC(=O)c1ccc2c(c1)c(NCC(O)CNC(=O)CCC(=O)O[C@@H]1O[C@@H]3O[C@@]4(C)CC[C@H]5CCC[C@@H]([C@H]1C)[C@]53OO4)c1c3ccccc3nc-1n2C` (some centres not stated), the IC50 came to 1.48 nM.

`C[C@H]1[C@H](OC(=O)CCC(=O)NCC(C)(C)CNc2c3c4ccccc4nc-3n(C)c3ccccc23)O[C@@H]2O[C@@]3(C)CC[C@H]4CCC[C@@H]1[C@]42OO3` registered an IC50 of 1.14 nM.

Test system in the next series: not listed separately
As to the kind of experiment: Selectivity index, ratio of IC50 for rat L6 cells to IC50 for chloroquine-sensitive Plasmodium falciparum NF54. The class given is toxicity, cell-based. Conditions: L6 cells (cytotoxicity) versus Plasmodium falciparum NF54, read-out: Ratio IC50.
On to `NCCCNc1c2ccccc2nc2c1[nH]c1ccccc12`, for which the selectivity ratio amounted to 16.

Take `C[C@H]1[C@H](OC(=O)CCC(=O)NCCCNc2nc3ccccc3c3[nH]c4ccccc4c23)O[C@@H]2O[C@@]3(C)CC[C@H]4[C@H](C)CC[C@@H]1[C@@]24OO3`: the selectivity ratio was 1320.

`C[C@H]1[C@H](OC(=O)CCC(=O)NCCCNc2c3ccccc3nc3c2[nH]c2ccccc23)O[C@@H]2O[C@@]3(C)CC[C@H]4[C@H](C)CC[C@@H]1[C@@]24OO3`: the selectivity ratio was 215.

Take `COC(=O)c1ccc2c(c1)c(NCC(O)CNC(=O)CCC(=O)O[C@@H]1O[C@@H]3O[C@@]4(C)CC[C@H]5CCC[C@@H]([C@H]1C)[C@]53OO4)c1c3ccccc3nc-1n2C` (some centres not stated): the selectivity ratio was 826.

For `C[C@H]1[C@H](OC(=O)CCC(=O)NCC(C)(C)CNc2c3c4ccccc4nc-3n(C)c3ccccc23)O[C@@H]2O[C@@]3(C)CC[C@H]4CCC[C@@H]1[C@]42OO3`, the selectivity ratio came out at 2600.

A further series has as its system L6. Nature of the series: Cytotoxicity against rat L6 cells. In kind it is cell-based.
Conditions: not given
As for `NCCCNc1c2ccccc2nc2c1[nH]c1ccccc12`, the IC50 was 276 nM.

Regarding `C[C@H]1[C@H](OC(=O)CCC(=O)NCCCNc2nc3ccccc3c3[nH]c4ccccc4c23)O[C@@H]2O[C@@]3(C)CC[C@H]4[C@H](C)CC[C@@H]1[C@@]24OO3`, half-maximal inhibition (IC50) required 2200 nM.

In turn, `C[C@H]1[C@H](OC(=O)CCC(=O)NCCCNc2c3ccccc3nc3c2[nH]c2ccccc23)O[C@@H]2O[C@@]3(C)CC[C@H]4[C@H](C)CC[C@@H]1[C@@]24OO3` returned a concentration for half-maximal inhibition (IC50) of 2620 nM.

In the case of `COC(=O)c1ccc2c(c1)c(NCC(O)CNC(=O)CCC(=O)O[C@@H]1O[C@@H]3O[C@@]4(C)CC[C@H]5CCC[C@@H]([C@H]1C)[C@]53OO4)c1c3ccccc3nc-1n2C` (some centres not stated), the IC50 is 1220 nM.

The molecule `C[C@H]1[C@H](OC(=O)CCC(=O)NCC(C)(C)CNc2c3c4ccccc4nc-3n(C)c3ccccc23)O[C@@H]2O[C@@]3(C)CC[C@H]4CCC[C@@H]1[C@]42OO3` returned an IC50 of 2960 nM.

The subject of another series is Plasmodium falciparum. As to the kind of experiment: Antiplasmodial activity against chloroquine-resistant Plasmodium falciparum K1. In kind it is functional, organism-based.
Conditions: not given
As for `C[C@@H]1CC[C@H]2[C@@H](C)C(=O)O[C@@H]3O[C@@]4(C)CC[C@@H]1[C@]32OO4` [ARTEMISININ], 2.8 nM corresponded to half-maximal inhibition (IC50).

`C[C@H]1[C@H](OC(=O)CCC(=O)NCCCNc2nc3ccccc3c3[nH]c4ccccc4c23)O[C@@H]2O[C@@]3(C)CC[C@H]4[C@H](C)CC[C@@H]1[C@@]24OO3` returned a half-maximal inhibitory concentration (IC50) of 0.67 nM.

For the molecule `COC(=O)c1ccc2c(c1)c(NCC(O)CNC(=O)CCC(=O)O[C@@H]1O[C@@H]3O[C@@]4(C)CC[C@H]5CCC[C@@H]([C@H]1C)[C@]53OO4)c1c3ccccc3nc-1n2C` (some centres not stated), the IC50 was 0.4 nM.

In the case of `C[C@H]1[C@H](OC(=O)CCC(=O)NCC(C)(C)CNc2c3c4ccccc4nc-3n(C)c3ccccc23)O[C@@H]2O[C@@]3(C)CC[C@H]4CCC[C@@H]1[C@]42OO3`, the IC50 was found to be 0.93 nM.

The next series addresses Heme. Nature of the series: Binding affinity to heme assessed as inhibition of beta-hematin formation by NP40 detergent based assay.
Conditions: not given
As for `NCCCNc1c2ccccc2nc2c1[nH]c1ccccc12`, the IC50 amounted to 16800 nM.

Turning to `C[C@H]1[C@H](OC(=O)CCC(=O)NCCCNc2nc3ccccc3c3[nH]c4ccccc4c23)O[C@@H]2O[C@@]3(C)CC[C@H]4[C@H](C)CC[C@@H]1[C@@]24OO3`, the IC50 is 15700 nM.

Take `COC(=O)c1ccc2c(c1)c(NCCCN)c1c3ccccc3nc-1n2C`: the IC50 is 104000 nM.

For the molecule `C[C@H]1[C@H](OC(=O)CCC(=O)NCCCNc2c3ccccc3nc3c2[nH]c2ccccc23)O[C@@H]2O[C@@]3(C)CC[C@H]4[C@H](C)CC[C@@H]1[C@@]24OO3`, the IC50 turned out to be 17100 nM.

`COC(=O)c1ccc2c(c1)c(NCC(O)CNC(=O)CCC(=O)O[C@@H]1O[C@@H]3O[C@@]4(C)CC[C@H]5CCC[C@@H]([C@H]1C)[C@]53OO4)c1c3ccccc3nc-1n2C` (some centres not stated): the IC50 came out at 41700 nM.

For `C[C@H]1[C@H](OC(=O)CCC(=O)NCC(C)(C)CNc2c3c4ccccc4nc-3n(C)c3ccccc23)O[C@@H]2O[C@@]3(C)CC[C@H]4CCC[C@@H]1[C@]42OO3`, the IC50 amounted to 70200 nM.

Source of the values: ChEMBL document CHEMBL3585310, “Synthesis and evaluation of artesunateindoloquinoline hybrids as antimalarial drug candidates” (Medchemcomm, 2014).
